Patent publication US9656962B2, “Ring-contracted morphinans and the use thereof” (Purdue Pharma L.P., priority 2013, dated 2017)

Columns and labels:
μ-opioid receptor = μ-opioid receptor (Homo sapiens (Human), UniProt P35372); test: μ-opioid receptor [35S]GTPγS functional assay, U-2 OS cells (Table 5); type: biochemical
Summary of the method: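 Membranes (0.026 mg/mL) from cells expressing recombinant human μ-opioid receptor in a U-2 OS background were incubated with 0.20 nM [35S]GTPγS, 3 mM GDP and saponin in 20 mM HEPES pH 7.4, 100 mM NaCl, 10 mM MgCl2 for 30 min at about 25 °C. Filter-bound radioactivity counted; sigmoidal dose-response fits gave values, Emax relative to DAMGO.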

[1] = target: human opioid receptor-like receptor (ORL-1) (Homo sapiens (Human), UniProt P41146); test: ORL-1 receptor radioligand binding assay ([3H]-nociceptin); details: binding affinity, bound given in μM, read-out: Ki ORL-1
Method: ORL-1 Receptor Binding Assay Procedure: Membranes from recombinant HEK-293 cells expressing the human opioid receptor-like receptor (ORL-1) (Perkin Elmer, Shelton, Conn.) was prepared by lysing cells in ice-cold hypotonic buffer (2.5 mM MgCl2, 50 mM HEPES, pH 7.4) (10 ml/10 cm dish) followed by homogenization with a tissue grinder/Teflon pestle. Membranes were collected by centrifugation at 30,000×g for 15 min at 4° C. and pellets resuspended in hypotonic buffer to a final concentration of 1-3 mg/ml. Protein concentrations were determined using the BioRad protein assay reagent with bovine serum albumen as standard. Aliquots of the ORL-1 receptor membranes were stored at −80° C.
Radioligand binding assays (screening and dose-displacement) use 0.1 nM [^3H]-nociceptin (Perkin Elmer, Shelton, Conn.; 87.7 Ci/mmole) with 12 μg membrane protein in a final volume of 500 μl binding buffer (10 mM MgCl2, 1 mM EDTA, 5% DMSO, 50 mM HEPES, pH 7.4). Non-specific binding was determined in the presence of […] unlabeled nociceptin (American Peptide Company). […] Fifty μl/well scintillation cocktail (Perkin Elmer, Shelton, Conn.) was added and plates are counted in a Packard Top-Count for 1 min/well. The data from screening and dose-displacement experiments were analyzed using Microsoft Excel and the curve fitting functions in GraphPad PRISM™, v. […]

κ-opioid receptor [2] = target: T1, κ-opioid receptor (Homo sapiens (Human), UniProt P41145); test: κ-opioid receptor [35S]GTPγS functional assay, U-2 OS cells (Table 5); type: biochemical
Summary of the method: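 [35S]GTPγS binding in κ receptor membranes (0.026 μg/μl protein) with 10 μg/mL saponin, 3 μM GDP and 0.20 nM [35S]GTPγS in pH 7.4 HEPES/NaCl/MgCl2 buffer. Agonist incubation lasted 30 min at about 25 °C, followed by filtration and scintillation counting. Emax is expressed relative to U69,593.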

κ-opioid receptor [3] = target: T1, κ-opioid receptor; test: κ-opioid receptor [35S]GTPγS functional assay, HEK-293 or CHO cells (Table 4); type: biochemical

SMILES: NC(=O)[C@@H]1C[C@]23CCN(CC4CC4)[C@H](Cc4ccc(O)cc42)[C@]3(O)C1 [Compound 31, (2R,3aS,4R,9bS)-12-(cyclopropylmethyl)-3a,8-dihydroxy-1,2,3,3a,4,5-hexahydro-4,9b-(epiminoethano)cyclopenta-[a]naphthalene-2-carboxamide]
- Emax (μ-opioid receptor; relative to DAMGO): 49 ± 3.76%
- EC50 (μ-opioid receptor; μ GTP): 2.35 ± 0.32 nM
- Ki [1]: > 20 µM
- Emax (κ-opioid receptor [2]; relative to U69,593): 87.5 ± 5.04%
- EC50 (κ-opioid receptor [2]; κ GTP): 2.62 ± 0.024 nM
- Emax (κ-opioid receptor [3]; relative to U69,593): 35.3 ± 2.19%
- EC50 (κ-opioid receptor [3]; κ GTP): 6.95 ± 0.97 nM
